The structures appear in SMILES notation. Values joined by “and” are separate entries in the source; they are usually repeats but may differ in a detail not shown here. Identical values can stand only once. ± gives the expanded uncertainty stated by the source.

Drawing on the NIST ThermoML archive (doi:10.1021/je060136y), this text covers activity coefficient for 3 compounds.

The nature of the data set: activity coefficient (dimensionless); of the first substance listed, at infinite dilution; xn = mol fraction of the nth substance listed. Particulars: Liquid, x1 = 0.
Setting [1] is: 333.15 K, Rayleigh distillation method.
[2] abbreviates: 343.15 K, Rayleigh distillation method.
Setting [3] is: 353.15 K, Rayleigh distillation method.

As for `Nc1ccccc1` [aniline] + O, the activity coefficient is, setting by setting: (298.15 K, headspace analysis) 145 ± 15; under setting [1], 130 ± 13; under setting [2], 121 and 119; under setting [3], 111 ± 11; (372.47 K, ciculation still method) 92.7 ± 9.3.
As for `NC1CCCCC1` [cyclohexylamine] + O, the activity coefficient runs as follows: (298.15 K, headspace analysis) 19 ± 2; (313.15 K, headspace analysis) 29.1 ± 2.9; under setting [1], 36.7 ± 3.7; under setting [2], 44.8 ± 4.5; under setting [3], 51.2 ± 5.1; (372.65 K, circulation still method) 64.5 ± 6.5. The activity coefficient (372.82 K, circulation still method) was 53.5 and 64.6.
As for `O=[N+]([O-])c1ccccc1` [nitrobenzene] + O, the activity coefficient is 2450 and 2320 under setting [1]; 2150 ± 220 under setting [2]; 1640 and 1660 under setting [3]; 1320 ± 130 (372.85 K, ciculation still method).
